Measured values from US20250099420A1, “SMALL MOLECULE MODULATORS OF GPR139 COMPLEX” (University of Florida Research Foundation, Incorporated, priority 2022, published 2025).
Read-outs that look alike come from different tables or passages of the source.

Tests used:
GPR139 = biological target: T1, GPR139 (Homo sapiens, UniProt Q6DWJ6); assay: GPR139 Agonist titration / agonist counterscreen assay (calcium detection, HEK-GPR139 cells); assay type: cell-based; parameters: expressed in transfected cells; host or cells: HEK Aequorin cells, Maxcyte transient transfection; details: GPR139 Agonist Activity; for Averaged Max % Response (±St. Dev.): activity relative to known control; for EC50: read-out: EC50
T1 sequence (Q6DWJ6 1-353): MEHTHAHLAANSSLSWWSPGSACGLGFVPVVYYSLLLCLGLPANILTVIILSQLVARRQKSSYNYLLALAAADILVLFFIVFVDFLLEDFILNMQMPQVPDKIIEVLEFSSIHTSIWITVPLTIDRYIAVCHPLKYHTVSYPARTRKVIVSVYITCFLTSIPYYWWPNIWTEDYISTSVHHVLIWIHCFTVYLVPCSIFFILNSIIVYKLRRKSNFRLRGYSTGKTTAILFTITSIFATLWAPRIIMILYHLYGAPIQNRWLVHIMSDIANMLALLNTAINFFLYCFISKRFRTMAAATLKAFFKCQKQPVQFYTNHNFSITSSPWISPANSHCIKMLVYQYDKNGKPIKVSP
Protocol: GPR activity was assessed using a calcium detection assay. […] Negative control samples were treated with DMSO. […] Intracellular calcium was measured using Calcium 5.

parental HEK cells = assay: HEK parental Agonist Counterscreen Assay (non-transfected cells); assay type: cell-based; details: for Averaged Max % Response (±St. Dev.): activity relative to known control
Excerpt: The high control for the agonist counterscreen was Forskolin not acetylcholine.

[1] = values printed in E-notation without unit
[2] = HEK Agonist Activity section of Table 4 (parental HEK counterscreen)
[3] = Homo sapiens, HEK293, HEK Agonist Activity section of Table 4 (parental HEK counterscreen)
[4] = Homo sapiens, HEK293, HEK Agonist Activity, parental non-transfected HEK cells

## Cc1cccc(OCC(=O)NNC(=O)C(C)Oc2ccc(Cl)cc2Cl)c1 (centres unmarked) [SR-01000318010]
GPR139
  Averaged Max % Response (±St. Dev.): 90.09 ± 14.61%
GPR139; based on logD
  Lipophilic Efficiency (logD): 3.32
GPR139; based on logP
  Lipophilic Efficiency (logP): 3.28
GPR139; fitted dose-response curve
  Hill Slope: 1.08
GPR139; ligand efficiency
  Efficiency Ligand: 0.38
GPR139; [1]
  EC50: 103 nM
Parental HEK cells; HEK Agonist Activity section
  Lipophilic Efficiency (logD): 1.19
  Lipophilic Efficiency (logP): 1.15
  Averaged Max % Response (±St. Dev.): 12.20 ± 3.74%
Parental HEK cells; [2]
  EC50: > 14100 nM

## N#C/C(=C/c1ccc(CNS(=O)(=O)c2ccccc2)o1)C(=O)NCCc1ccccc1 [SR-01000318079]
GPR139
  Averaged Max % Response (±St. Dev.): 102.46 ± 8.64%
GPR139; based on logD
  Lipophilic Efficiency (logD): 3.78
GPR139; based on logP
  Lipophilic Efficiency (logP): 3.77
GPR139; fitted dose-response curve
  Hill Slope: 0.56
GPR139; ligand efficiency
  Efficiency Ligand: 0.30
GPR139; [1]
  EC50: 210 nM
Parental HEK cells; HEK Agonist Activity section
  Lipophilic Efficiency (logD): 1.96
  Lipophilic Efficiency (logP): 1.94
  Averaged Max % Response (±St. Dev.): 11.69 ± 6.13%
Parental HEK cells; [2]
  EC50: > 14100 nM

## Cc1c(Cl)c([N+](=O)[O-])nn1CC(=O)NC(C)COc1ccccc1 (centres unmarked) [SR-01000318171]
GPR139
  Efficiency Ligand: 0.36
  Hill Slope: 1.01
  Lipophilic Efficiency (logD): 3.49
  Lipophilic Efficiency (logP): 3.49
  Averaged Max % Response (±St. Dev.): 76.40 ± 3.97%
GPR139; HEK-GPR139 cells
  EC50: 656 nM
Parental HEK cells; HEK Agonist Activity section
  Lipophilic Efficiency (logD): 2.16
  Lipophilic Efficiency (logP): 2.16
  Averaged Max % Response (±St. Dev.): 6.88 ± 5.68%
Parental HEK cells; [3]
  EC50: > 14100 nM

## Cc1cc(Br)ccc1OCC(=O)NNC(=O)c1ccccc1C [SR-01000318521]
GPR139
  Efficiency Ligand: 0.36
  Hill Slope: 0.97
  Lipophilic Efficiency (logD): 2.40
  Lipophilic Efficiency (logP): 2.39
  Averaged Max % Response (±St. Dev.): 72.38 ± 5.96%
GPR139; HEK-GPR139 cells
  EC50: 1200 nM
Parental HEK cells; HEK Agonist Activity section
  Lipophilic Efficiency (logD): 1.31
  Lipophilic Efficiency (logP): 1.30
  Averaged Max % Response (±St. Dev.): 6.11 ± 9.12%
Parental HEK cells; [3]
  EC50: > 14100 nM

## CC(Oc1ccc(Cl)cc1Cl)C(=O)NNC(=O)c1ccncc1 (centres unmarked) [SR-01000319951]
GPR139
  Averaged Max % Response (±St. Dev.): 97.49 ± 3.70%
GPR139; based on logD
  Lipophilic Efficiency (logD): 4.59
GPR139; based on logP
  Lipophilic Efficiency (logP): 4.53
GPR139; fitted dose-response curve
  Hill Slope: 0.88
GPR139; ligand efficiency
  Efficiency Ligand: 0.42
GPR139; [1]
  EC50: 143 nM
Parental HEK cells; HEK Agonist Activity section
  Lipophilic Efficiency (logD): 2.60
  Lipophilic Efficiency (logP): 2.54
  Averaged Max % Response (±St. Dev.): 7.14 ± 13.31%
Parental HEK cells; [3]
  EC50: > 14100 nM

## O=C(O)CC1CCCC1c1ccccc1 (centres unmarked) [SR-01000320687]
GPR139
  Efficiency Ligand: 0.56
  Hill Slope: 0.93
  Lipophilic Efficiency (logD): 5.53
  Lipophilic Efficiency (logP): 2.98
  Averaged Max % Response (±St. Dev.): 65.23 ± 8.63%
GPR139; HEK-GPR139 cells
  EC50: 930 nM
Parental HEK cells; HEK Agonist Activity section
  Lipophilic Efficiency (logD): 4.35
  Lipophilic Efficiency (logP): 1.80
  Averaged Max % Response (±St. Dev.): 17.26 ± 6.30%
Parental HEK cells; [3]
  EC50: > 14100 nM

## COc1ccccc1NC(=O)C(=O)NNC(=O)COc1ccc(Br)cc1C [SR-01000325257]
GPR139
  Efficiency Ligand: 0.29
  Hill Slope: 0.69
  Lipophilic Efficiency (logD): 3.27
  Lipophilic Efficiency (logP): 3.22
  Averaged Max % Response (±St. Dev.): 66.69 ± 11.44%
GPR139; HEK-GPR139 cells
  EC50: 2300 nM
Parental HEK cells; HEK Agonist Activity section
  Lipophilic Efficiency (logD): 2.48
  Lipophilic Efficiency (logP): 2.44
  Averaged Max % Response (±St. Dev.): −2.80 ± 2.96%
Parental HEK cells; [3]
  EC50: > 14100 nM

## COc1ccc(CCN2CC3=C(C2=O)C(c2ccc(F)c(F)c2)NC(=O)N3)cc1 (centres unmarked) [SR-01000335002]
GPR139
  Efficiency Ligand: 0.31
  Hill Slope: 0.68
  Lipophilic Efficiency (logD): 4.62
  Lipophilic Efficiency (logP): 4.62
  Averaged Max % Response (±St. Dev.): 86.79 ± 17.90%
GPR139; HEK-GPR139 cells
  EC50: 422 nM
Parental HEK cells; HEK Agonist Activity section
  Lipophilic Efficiency (logD): 3.09
  Lipophilic Efficiency (logP): 3.09
  Averaged Max % Response (±St. Dev.): 20.28 ± 3.20%
Parental HEK cells; [2]
  EC50: > 14100 nM

## COc1ccc(CCn2nc(-c3cccnc3)[nH]c2=O)cc1 [SR-01000335115]
GPR139
  Efficiency Ligand: 0.38
  Hill Slope: 1.29
  Lipophilic Efficiency (logD): 3.37
  Lipophilic Efficiency (logP): 3.37
  Averaged Max % Response (±St. Dev.): 86.17 ± 9.84%
GPR139; HEK-GPR139 cells
  EC50: 1300 nM
Parental HEK cells; HEK Agonist Activity section
  Lipophilic Efficiency (logD): 2.33
  Lipophilic Efficiency (logP): 2.33
  Averaged Max % Response (±St. Dev.): 12.86 ± 9.78%
Parental HEK cells; [3]
  EC50: > 14100 nM

## COc1ccccc1NC(=O)NNC(=O)CN1C(=O)COc2ccccc21 [SR-01000336035]
GPR139
  Averaged Max % Response (±St. Dev.): 100.35 ± 10.43%
GPR139; based on logD
  Lipophilic Efficiency (logD): 6.65
GPR139; based on logP
  Lipophilic Efficiency (logP): 6.65
GPR139; fitted dose-response curve
  Hill Slope: 0.39
GPR139; ligand efficiency
  Efficiency Ligand: 0.37
GPR139; [1]
  EC50: 79.7 nM
Parental HEK cells; HEK Agonist Activity section
  Lipophilic Efficiency (logD): 4.40
  Lipophilic Efficiency (logP): 4.40
  Averaged Max % Response (±St. Dev.): −5.99 ± 6.97%
Parental HEK cells; [3]
  EC50: > 14100 nM

## CCCc1nn(CC(=O)NCc2nc3ccccc3n2C)c(=O)c2cc3ccsc3n12 [SR-01000336681]
GPR139
  Efficiency Ligand: 0.26
  Hill Slope: 1.92
  Lipophilic Efficiency (logD): 3.33
  Lipophilic Efficiency (logP): 3.33
  Averaged Max % Response (±St. Dev.): 81.02 ± 6.69%
GPR139; HEK-GPR139 cells
  EC50: 1600 nM
Parental HEK cells; HEK Agonist Activity section
  Lipophilic Efficiency (logD): 2.37
  Lipophilic Efficiency (logP): 2.37
  Averaged Max % Response (±St. Dev.): 4.99 ± 7.59%
Parental HEK cells; [2]
  EC50: > 14100 nM

## Cc1ccc(C(=O)NNC(=O)CSc2nnc(Cn3cnc4ccccc43)o2)cc1 [SR-01000337370]
GPR139
  Averaged Max % Response (±St. Dev.): 96.26 ± 15.22%
GPR139; based on logD
  Lipophilic Efficiency (logD): 5.62
GPR139; based on logP
  Lipophilic Efficiency (logP): 5.61
GPR139; fitted dose-response curve
  Hill Slope: 0.87
GPR139; ligand efficiency
  Efficiency Ligand: 0.34
GPR139; [1]
  EC50: 47.5 nM
Parental HEK cells; HEK Agonist Activity section
  Lipophilic Efficiency (logD): 3.15
  Lipophilic Efficiency (logP): 3.14
  Averaged Max % Response (±St. Dev.): 23.00 ± 5.22%
Parental HEK cells; [2]
  EC50: > 14100 nM

## COc1ccc(-c2nnn(CC(=O)NCCc3c[nH]c4ccccc34)n2)cc1OC [SR-01000339494]
GPR139
  Averaged Max % Response (±St. Dev.): 107.79 ± 9.70%
GPR139; based on logD
  Lipophilic Efficiency (logD): 5.30
GPR139; based on logP
  Lipophilic Efficiency (logP): 5.30
GPR139; fitted dose-response curve
  Hill Slope: 0.87
GPR139; ligand efficiency
  Efficiency Ligand: 0.38
Parental HEK cells; HEK Agonist Activity
  Lipophilic Efficiency (logD): 1.97
  Lipophilic Efficiency (logP): 1.97
  Averaged Max % Response (±St. Dev.): 13.92 ± 7.54%
Parental HEK cells; [4]
  EC50: > 14100 nM

## COc1ccccc1C(=O)NNC(=O)C(C)Oc1ccc(Cl)cc1Cl (centres unmarked) [SR-01000356020]
GPR139
  Averaged Max % Response (±St. Dev.): 106.05 ± 9.09%
GPR139; based on logD
  Lipophilic Efficiency (logD): 4.30
GPR139; based on logP
  Lipophilic Efficiency (logP): 4.27
GPR139; fitted dose-response curve
  Hill Slope: 0.91
GPR139; ligand efficiency
  Efficiency Ligand: 0.43
GPR139; [1]
  EC50: 23 nM
Parental HEK cells; HEK Agonist Activity
  Lipophilic Efficiency (logD): 1.52
  Lipophilic Efficiency (logP): 1.48
  Averaged Max % Response (±St. Dev.): 1.37 ± 3.30%
Parental HEK cells; [4]
  EC50: > 14100 nM

## COc1cccc(C(=O)NNC(=O)C(C)Oc2ccc(Cl)cc2Cl)c1 (centres unmarked) [SR-01000356497]
GPR139
  Averaged Max % Response (±St. Dev.): 126.50 ± 10.38%
GPR139; based on logD
  Lipophilic Efficiency (logD): 4.97
GPR139; based on logP
  Lipophilic Efficiency (logP): 4.94
GPR139; fitted dose-response curve
  Hill Slope: 0.32
GPR139; ligand efficiency
  Efficiency Ligand: 0.47
GPR139; [1]
  EC50: 4.9 nM
Parental HEK cells; HEK Agonist Activity
  Lipophilic Efficiency (logD): 1.52
  Lipophilic Efficiency (logP): 1.48
  Averaged Max % Response (±St. Dev.): 2.54 ± 3.30%
Parental HEK cells; [4]
  EC50: > 14100 nM

## Cc1[nH]c(=O)[nH]c(=O)c1/C=N\NC(=O)CCc1ccc(OC(C)C)cc1 [SR-01000357697]
GPR139
  Efficiency Ligand: 0.31
  Hill Slope: 1.75
  Lipophilic Efficiency (logD): 4.74
  Lipophilic Efficiency (logP): 4.74
  Averaged Max % Response (±St. Dev.): 87.67 ± 13.61%
Parental HEK cells; HEK Agonist Activity section
  Lipophilic Efficiency (logD): 3.76
  Lipophilic Efficiency (logP): 3.76
  Averaged Max % Response (±St. Dev.): −2.06 ± 7.71%
Parental HEK cells; [3]
  EC50: > 14100 nM
